The values that follow come from publication doi:10.1101/2024.08.13.607785v1 (biorxiv, 2024).

What all share (test): biochemical
Design in all cases: species or system human cell line lysate

The target in experiment [1] is Tyrosine-protein kinase Fer ; FER ; P16591 (Homo sapiens, UniProt P16591).
For experiment [2], the target named is Interleukin-1 receptor-associated kinase 4 ; IRAK4 ; Q9NWZ3 (Homo sapiens, UniProt Q9NWZ3).
In experiment [3] the target is Tyrosine-protein kinase CSK ; CSK ; P41240 (Homo sapiens, UniProt P41240).
In experiment [4] the target is Isoform 2 of Serine/threonine-protein kinase TAO2 ; TAOK2 ; Q9UL54-2 (Homo sapiens, UniProt Q9UL54).
Experiment [5] addresses Deoxycytidine kinase ; DCK ; P27707 (Homo sapiens, UniProt P27707).
For experiment [6], the target named is Isoform CSBP1 of Mitogen-activated protein kinase 14 ; MAPK14 ; Q16539-2 (Homo sapiens, UniProt Q16539).
Experiment [7] addresses 1-phosphatidylinositol 3-phosphate 5-kinase ; PIKFYVE ; Q9Y2I7 (Homo sapiens, UniProt Q9Y2I7).
Experiment [8] has as its target Isoform 6 of Calcium/calmodulin-dependent protein kinase type II subun ; CAMK2G ; Q13555-6 (Homo sapiens, UniProt Q13555).
Experiment [9] deals with Calcium/calmodulin-dependent protein kinase type II subunit alpha ; CAMK2A ; Q9UQM7 (Homo sapiens, UniProt Q9UQM7).
The target of experiment [10] is Serine/threonine-protein kinase ULK3 ; ULK3 ; Q6PHR2 (Homo sapiens, UniProt Q6PHR2).
Experiment [11] addresses Aurora kinase A ; AURKA ; O14965 (Homo sapiens, UniProt O14965).
The target of experiment [12] is Tyrosine-protein kinase Fyn ; FYN ; P06241 (Homo sapiens, UniProt P06241).
Experiment [13] addresses Isoform Mxi2 of Mitogen-activated protein kinase 14 ; MAPK14 ; Q16539-3 (Homo sapiens, UniProt Q16539).
For experiment [14], the target named is LIM domain kinase 2 ; LIMK2 ; P53671 (Homo sapiens, UniProt P53671).
Experiment [15] concerns the target Rho-associated protein kinase 2 ; ROCK2 ; O75116 (Homo sapiens, UniProt O75116).
The target in experiment [16] is Dual specificity tyrosine-phosphorylation-regulated kinase 1A ; DYRK1A ; Q13627 (Homo sapiens, UniProt Q13627).
Experiment [17] has as its target Ribosomal protein S6 kinase beta-1 ; RPS6KB1 ; P23443 (Homo sapiens, UniProt P23443).
The target in experiment [18] is Serine/threonine-protein kinase Sgk3 ; SGK3 ; Q96BR1 (Homo sapiens, UniProt Q96BR1).
In experiment [19] the target is Serine/threonine-protein kinase TBK1 ; TBK1 ; Q9UHD2 (Homo sapiens, UniProt Q9UHD2).
Experiment [20] concerns the target Mitogen-activated protein kinase kinase kinase 15 ; MAP3K15 ; Q6ZN16 (Homo sapiens, UniProt Q6ZN16).
Experiment [21] deals with Serine/threonine-protein kinase MRCK gamma ; CDC42BPG ; Q6DT37 (Homo sapiens, UniProt Q6DT37).
Experiment [22] deals with Isoform Beta-II of Protein kinase C beta type ; PRKCB ; P05771-2 (Homo sapiens, UniProt P05771).
Experiment [23] addresses Casein kinase II subunit alpha' ; CSNK2A2 ; P19784 (Homo sapiens, UniProt P19784).
[24] abbreviates: read-out: BAY-1251152 (10 µM) / %Intensity relative to DMSO.
Setting [25] is: read-out: BAY-1143572 (10 µM) / %Intensity relative to DMSO.

Read-outs that look alike come from different tables or passages of the source.

Sequence of Isoform 6 of Calcium/calmodulin-dependent protein kinase type II subun ; CAMK2G ; Q13555-6 (Q13555 whole entry, canonical isoform, one chain of several): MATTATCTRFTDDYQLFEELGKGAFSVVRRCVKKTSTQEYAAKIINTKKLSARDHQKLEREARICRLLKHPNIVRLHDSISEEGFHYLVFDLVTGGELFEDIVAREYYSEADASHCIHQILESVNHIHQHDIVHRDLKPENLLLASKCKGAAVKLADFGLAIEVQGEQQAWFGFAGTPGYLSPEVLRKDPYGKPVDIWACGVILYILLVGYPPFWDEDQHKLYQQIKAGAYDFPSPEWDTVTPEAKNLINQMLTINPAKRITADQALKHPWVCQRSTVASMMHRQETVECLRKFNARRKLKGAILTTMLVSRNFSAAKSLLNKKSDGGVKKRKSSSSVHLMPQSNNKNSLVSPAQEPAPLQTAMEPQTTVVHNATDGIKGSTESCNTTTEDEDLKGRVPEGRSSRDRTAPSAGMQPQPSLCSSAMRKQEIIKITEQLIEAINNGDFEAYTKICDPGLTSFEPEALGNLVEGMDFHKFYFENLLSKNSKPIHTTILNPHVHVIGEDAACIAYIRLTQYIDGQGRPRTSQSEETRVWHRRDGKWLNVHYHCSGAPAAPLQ
Sequence of Serine/threonine-protein kinase Sgk3 ; SGK3 ; Q96BR1 (Q96BR1 whole entry, one chain of several): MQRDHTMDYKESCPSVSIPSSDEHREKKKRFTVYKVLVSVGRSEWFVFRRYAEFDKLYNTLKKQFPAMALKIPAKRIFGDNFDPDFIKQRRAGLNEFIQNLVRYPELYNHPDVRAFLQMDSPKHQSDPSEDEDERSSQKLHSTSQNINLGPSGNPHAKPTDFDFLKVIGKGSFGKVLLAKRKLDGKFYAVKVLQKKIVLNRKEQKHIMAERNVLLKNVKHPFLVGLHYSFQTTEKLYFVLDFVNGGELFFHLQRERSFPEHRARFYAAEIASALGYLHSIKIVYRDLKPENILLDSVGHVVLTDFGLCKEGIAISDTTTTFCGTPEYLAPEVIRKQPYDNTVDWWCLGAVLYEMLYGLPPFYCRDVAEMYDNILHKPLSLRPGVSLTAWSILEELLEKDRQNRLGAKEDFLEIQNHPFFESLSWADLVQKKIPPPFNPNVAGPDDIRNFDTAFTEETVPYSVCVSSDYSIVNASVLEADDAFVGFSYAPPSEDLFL
Sequence of Isoform Mxi2 of Mitogen-activated protein kinase 14 ; MAPK14 ; Q16539-3 (Q16539 whole entry, the tested form may be a part, canonical isoform): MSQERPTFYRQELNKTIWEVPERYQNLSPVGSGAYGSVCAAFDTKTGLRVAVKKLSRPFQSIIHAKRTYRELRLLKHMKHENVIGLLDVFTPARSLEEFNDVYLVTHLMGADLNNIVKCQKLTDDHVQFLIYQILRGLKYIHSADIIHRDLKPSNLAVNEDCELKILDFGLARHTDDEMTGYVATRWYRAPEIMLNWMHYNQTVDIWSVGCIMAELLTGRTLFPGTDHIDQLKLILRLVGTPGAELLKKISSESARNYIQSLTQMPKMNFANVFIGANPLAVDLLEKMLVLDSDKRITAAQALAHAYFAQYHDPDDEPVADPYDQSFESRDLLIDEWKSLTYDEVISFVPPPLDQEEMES
Sequence of Isoform CSBP1 of Mitogen-activated protein kinase 14 ; MAPK14 ; Q16539-2 (Q16539 whole entry, canonical isoform, one chain of several): as the sequence (Q16539 whole entry, the tested form may be a part, canonical isoform) above
Sequence of Serine/threonine-protein kinase MRCK gamma ; CDC42BPG ; Q6DT37 (Q6DT37 whole entry, canonical isoform, one chain of several): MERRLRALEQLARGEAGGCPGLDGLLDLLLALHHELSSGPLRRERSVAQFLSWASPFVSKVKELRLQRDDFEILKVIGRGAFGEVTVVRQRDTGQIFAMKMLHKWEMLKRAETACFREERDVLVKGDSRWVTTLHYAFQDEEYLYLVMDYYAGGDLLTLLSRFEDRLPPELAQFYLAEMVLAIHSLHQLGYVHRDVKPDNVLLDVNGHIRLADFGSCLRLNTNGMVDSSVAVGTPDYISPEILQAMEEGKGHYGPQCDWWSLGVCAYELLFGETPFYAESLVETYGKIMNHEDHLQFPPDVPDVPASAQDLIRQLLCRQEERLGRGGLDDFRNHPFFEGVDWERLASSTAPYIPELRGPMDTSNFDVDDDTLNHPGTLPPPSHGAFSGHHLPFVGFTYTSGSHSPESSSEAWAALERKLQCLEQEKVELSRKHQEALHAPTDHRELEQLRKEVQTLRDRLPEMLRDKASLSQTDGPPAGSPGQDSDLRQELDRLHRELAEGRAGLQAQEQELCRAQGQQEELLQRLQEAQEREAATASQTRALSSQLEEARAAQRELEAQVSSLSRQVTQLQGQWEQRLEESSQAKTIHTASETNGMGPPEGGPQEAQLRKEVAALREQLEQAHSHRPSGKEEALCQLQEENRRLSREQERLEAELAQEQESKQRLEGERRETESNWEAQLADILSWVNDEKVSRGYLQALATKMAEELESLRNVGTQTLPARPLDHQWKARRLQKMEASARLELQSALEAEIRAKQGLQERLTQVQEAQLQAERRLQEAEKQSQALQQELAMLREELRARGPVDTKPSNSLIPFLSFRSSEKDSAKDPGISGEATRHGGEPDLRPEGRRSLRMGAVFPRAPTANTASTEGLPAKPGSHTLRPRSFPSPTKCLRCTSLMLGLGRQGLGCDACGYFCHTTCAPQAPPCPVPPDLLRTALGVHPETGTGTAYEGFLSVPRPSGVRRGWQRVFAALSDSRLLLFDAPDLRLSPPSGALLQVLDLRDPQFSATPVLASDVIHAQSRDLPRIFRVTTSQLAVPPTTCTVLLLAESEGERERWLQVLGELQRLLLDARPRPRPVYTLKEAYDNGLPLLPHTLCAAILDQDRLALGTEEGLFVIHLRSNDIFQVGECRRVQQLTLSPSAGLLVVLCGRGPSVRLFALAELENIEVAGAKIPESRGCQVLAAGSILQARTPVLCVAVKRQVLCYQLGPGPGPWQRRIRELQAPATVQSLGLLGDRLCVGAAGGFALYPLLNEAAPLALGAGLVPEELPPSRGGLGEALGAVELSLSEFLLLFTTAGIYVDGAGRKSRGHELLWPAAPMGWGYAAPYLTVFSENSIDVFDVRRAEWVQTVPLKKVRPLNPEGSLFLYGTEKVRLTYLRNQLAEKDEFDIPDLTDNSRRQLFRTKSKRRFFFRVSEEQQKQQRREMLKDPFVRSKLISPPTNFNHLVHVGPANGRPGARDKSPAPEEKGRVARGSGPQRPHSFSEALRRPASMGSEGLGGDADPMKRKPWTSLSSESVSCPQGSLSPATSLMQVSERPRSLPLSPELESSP
Sequence of Interleukin-1 receptor-associated kinase 4 ; IRAK4 ; Q9NWZ3 (Q9NWZ3 whole entry): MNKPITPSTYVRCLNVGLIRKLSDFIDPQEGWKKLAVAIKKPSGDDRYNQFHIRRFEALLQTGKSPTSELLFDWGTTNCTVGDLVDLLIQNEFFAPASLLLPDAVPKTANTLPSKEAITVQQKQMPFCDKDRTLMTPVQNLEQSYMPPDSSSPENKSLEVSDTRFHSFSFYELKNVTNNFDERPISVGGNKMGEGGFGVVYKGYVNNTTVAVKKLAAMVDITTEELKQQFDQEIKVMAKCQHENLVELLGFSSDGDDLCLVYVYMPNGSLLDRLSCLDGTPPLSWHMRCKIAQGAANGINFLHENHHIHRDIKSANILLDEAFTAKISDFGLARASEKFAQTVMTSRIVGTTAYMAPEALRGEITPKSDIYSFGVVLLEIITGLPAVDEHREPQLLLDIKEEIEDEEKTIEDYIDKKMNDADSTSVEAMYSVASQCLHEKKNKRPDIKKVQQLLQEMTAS
Sequence of Aurora kinase A ; AURKA ; O14965 (O14965 whole entry): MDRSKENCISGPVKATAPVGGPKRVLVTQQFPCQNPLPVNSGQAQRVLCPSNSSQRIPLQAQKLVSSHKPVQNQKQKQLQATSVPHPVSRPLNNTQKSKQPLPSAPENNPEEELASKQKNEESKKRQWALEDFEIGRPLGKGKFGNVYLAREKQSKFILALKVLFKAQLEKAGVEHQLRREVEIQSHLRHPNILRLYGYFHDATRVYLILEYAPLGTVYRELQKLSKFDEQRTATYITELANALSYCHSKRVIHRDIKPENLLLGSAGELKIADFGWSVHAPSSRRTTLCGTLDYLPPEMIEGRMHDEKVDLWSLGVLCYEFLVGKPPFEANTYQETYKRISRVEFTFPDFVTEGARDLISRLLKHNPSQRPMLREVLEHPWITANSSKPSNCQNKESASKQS
Sequence of Tyrosine-protein kinase CSK ; CSK ; P41240 (P41240 whole entry, canonical isoform): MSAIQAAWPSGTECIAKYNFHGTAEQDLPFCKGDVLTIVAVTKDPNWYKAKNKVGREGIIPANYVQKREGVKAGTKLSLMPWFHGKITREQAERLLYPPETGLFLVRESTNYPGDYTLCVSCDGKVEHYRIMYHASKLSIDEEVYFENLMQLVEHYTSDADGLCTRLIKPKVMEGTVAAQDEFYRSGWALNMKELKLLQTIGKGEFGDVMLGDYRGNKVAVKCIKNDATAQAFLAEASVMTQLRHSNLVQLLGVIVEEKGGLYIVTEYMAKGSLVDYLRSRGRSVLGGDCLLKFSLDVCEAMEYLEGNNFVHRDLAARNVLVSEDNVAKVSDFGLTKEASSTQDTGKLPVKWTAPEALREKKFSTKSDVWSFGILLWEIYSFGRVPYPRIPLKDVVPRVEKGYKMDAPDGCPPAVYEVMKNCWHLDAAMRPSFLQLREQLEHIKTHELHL
Sequence of Deoxycytidine kinase ; DCK ; P27707 (P27707 whole entry, canonical isoform): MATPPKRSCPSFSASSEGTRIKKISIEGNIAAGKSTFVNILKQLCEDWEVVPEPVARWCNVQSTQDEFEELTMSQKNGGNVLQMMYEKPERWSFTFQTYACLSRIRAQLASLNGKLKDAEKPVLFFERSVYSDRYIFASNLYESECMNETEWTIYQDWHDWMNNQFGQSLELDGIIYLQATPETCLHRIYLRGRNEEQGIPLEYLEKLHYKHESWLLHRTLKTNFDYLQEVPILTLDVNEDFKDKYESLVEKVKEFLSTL

As to `COc1cc(F)ccc1-c1cc(Nc2cc(CS(C)(=N)=O)ccn2)ncc1F` (stereo not shown) [BAY-1251152], the remaining activity at 10 µM in experiment [1] (setting [24]) amounted to 103%; in experiment [2] (setting [24]), 112%; in experiment [3] (setting [24]), 106%; in experiment [4] (setting [24]), 76.6%; in experiment [5] (setting [24]), 108%; in [6] (setting [24]), 120%. The remaining activity at 10 µM in experiment [7] (setting [24]) amounted to 102%; in [8] (setting [24]) it was 94.9%; in experiment [9] (setting [24]), 115%; in experiment [10] (setting [24]) it was 94.5%; in experiment [11] (setting [24]), 98.6%; in [12] (setting [24]) it was 103%. The remaining activity at 10 µM was found to be 119% in experiment [13] (setting [24]); 109% in experiment [14] (setting [24]); 110% in experiment [15] (setting [24]); 60.2% in experiment [16] (setting [24]); 129% in experiment [17] (setting [24]); 139% in experiment [18] (setting [24]). The remaining activity at 10 µM in experiment [19] (setting [24]) was 94%; in experiment [20] (setting [24]), 95%; in experiment [21] (setting [24]) it was 103%; in experiment [22] (setting [24]), 119%; in [23] (setting [24]), 98.2%.

With `COc1cc(F)ccc1-c1ncnc(Nc2cccc(C[S@](C)(=N)=O)c2)n1` [BAY-1143572], the remaining activity at 10 µM in experiment [1] (setting [25]) was determined as 112%; in experiment [2] (setting [25]), 121%; in experiment [3] (setting [25]), 112%; in [4] (setting [25]) it was 95.8%; in [5] (setting [25]), 121%; in experiment [6] (setting [25]), 133%. The remaining activity at 10 µM in experiment [7] (setting [25]) stood at 94.3%; in [8] (setting [25]) it was 105%; in experiment [9] (setting [25]), 130%; in experiment [10] (setting [25]), 93.7%; in experiment [11] (setting [25]), 112%; in experiment [12] (setting [25]), 92.2%. For the same compound, the remaining activity at 10 µM came out at 128% in [13] (setting [25]); 78% in experiment [14] (setting [25]); 120% in [15] (setting [25]); 76.3% in experiment [16] (setting [25]); 137% in experiment [17] (setting [25]); 148% in experiment [18] (setting [25]). The remaining activity at 10 µM turned out to be 94.7% in experiment [19] (setting [25]); 91.7% in experiment [20] (setting [25]); 102% in experiment [21] (setting [25]); 121% in [22] (setting [25]); 114% in experiment [23] (setting [25]).
